Data: US8247211B2, “Glycopeptide antibiotics” (American Cyanamid Company, priority 2001, dated 2012)
≈ marks a conversion by molar mass, not a printed value.

Columns and labels:
Test in all cases: In vitro antibacterial evaluation: minimum inhibitory concentration (MIC), broth dilution method
Assay type in all cases: cell-based
Escherichia coli = settings: broth dilution, 18 hours at 35° C.
Staphylococcus sp. = settings: broth dilution, 18 hours at 35° C.; for MIC Staphylococcus aureus-SMITH (GC 4543): strain SMITH GC 4543
Outline: (§1)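 NCCLS M7-A2 broth dilution with Mueller-Hinton II, testing 64-0.06 μg/mL antibiotic against 5×10^5 CFU/mL inocula. Test strains include recent methicillin-, penicillin- or vancomycin-resistant clinical isolates. MIC is the lowest concentration preventing growth.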

Streptococcus sp. = settings: broth dilution, 18 hours at 35° C.
Outline: as §1

Enterococcus sp. = settings: broth dilution, 18 hours at 35° C.
Outline: as §1

[1] = Streptococcus agalactiae (GC 4564)
[2] = Streptococcus pneumoniae (ATCC 6301)
[3] = Streptococcus pneumoniae (GC 1894)
[4] = Streptococcus pneumoniae (GC 4565)
[5] = Streptococcus pyogenes (GC 4563)
[6] = Enterococcus faecalis (ATCC 29212)
[7] = Enterococcus faecalis (GC 2242)
[8] = Enterococcus faecalis (GC 2691)
[9] = Enterococcus faecalis (GC 3059)
[10] = Enterococcus faecalis (GC 4552)
[11] = Enterococcus faecalis (GC 4553)
[12] = Enterococcus faecalis (GC 4554)
[13] = Enterococcus faecalis (GC 6189)

CC(c1ccccc1)C1NC(=O)CNC(=O)C(CO)NC(=O)C(C(O)C2CNC(=N)N2C2OC(CO)C(O)C(O)C2O)NC(=O)C(C(O)C2CNC(=N)N2)NC(=O)C(Cc2ccc3oc(-c4ccc(C(C)(C)C)cc4)nc3c2)NC1=O (stereo not drawn) [Example 32, Cyclo[3-[2-(4-tert-butylphenyl)-1,3-benzoxazol-5-yl]alanyl-3-(2-iminoimidazolidin-4-yl)seryl-3-(3-hexopyranosyl-2-iminoimidazolidin-4-yl)serylserylglycyl-β-methylphenylalanyl]]
MIC Escherichia coli (ATCC 25922) (Escherichia coli): 16 µg/mL (≈ 14.2 µM)
MIC Escherichia coli (GC 4559) (Escherichia coli): 16 µg/mL (≈ 14.2 µM)
MIC Escherichia coli (GC 4560) (Escherichia coli): 4 µg/mL (≈ 3.55 µM)
MIC Coagulase Negative Staphylococcus (GC 4547) (Staphylococcus sp.): 2 µg/mL (≈ 1.77 µM)
MIC Coagulase Negative Staphylococcus (GC 4548) (Staphylococcus sp.): 1 µg/mL (≈ 0.886 µM)
MIC Coagulase Negative Staphylococcus (GC 4549) (Staphylococcus sp.): 2 µg/mL (≈ 1.77 µM)
MIC Coagulase Negative Staphylococcus (GC 4551) (Staphylococcus sp.): 4 µg/mL (≈ 3.55 µM)
MIC Coagulase Negative Staphylococcus (GC 6257) (Staphylococcus sp.): 2 µg/mL (≈ 1.77 µM)
MIC Staphylococcus aureus SMITH (GC 4543) (Staphylococcus sp.): 2 µg/mL (≈ 1.77 µM)
MIC Staphylococcus haemolyticus (GC 4546) (Staphylococcus sp.): 2 µg/mL (≈ 1.77 µM)
MIC Staphylococcus aureus-SMITH (GC 4543) (Staphylococcus sp.): 2 µg/mL (≈ 1.77 µM)
MIC Streptococcus agalactiae (GC 4564) (Streptococcus sp.; [1]): 16 µg/mL (≈ 14.2 µM)
MIC Streptococcus pneumoniae (ATCC 6301) (Streptococcus sp.; [2]): 16 µg/mL (≈ 14.2 µM)
MIC Streptococcus pneumoniae (GC 1894) (Streptococcus sp.; [3]): 16 µg/mL (≈ 14.2 µM)
MIC Streptococcus pneumoniae (GC 4565) (Streptococcus sp.; [4]): 16 µg/mL (≈ 14.2 µM)
MIC Streptococcus pyogenes (GC 4563) (Streptococcus sp.; [5]): 8 µg/mL (≈ 7.09 µM)
MIC Streptococcus agalactiae (GC 4564) (Streptococcus sp.): 16 µg/mL (≈ 14.2 µM)
MIC Streptococcus pneumoniae (ATCC 6301) (Streptococcus sp.): 16 µg/mL (≈ 14.2 µM)
MIC Streptococcus pneumoniae (GC 1894) (Streptococcus sp.): 16 µg/mL (≈ 14.2 µM)
MIC Streptococcus pneumoniae (GC 4565) (Streptococcus sp.): 16 µg/mL (≈ 14.2 µM)
MIC Streptococcus pyogenes (GC 4563) (Streptococcus sp.): 8 µg/mL (≈ 7.09 µM)
MIC Enterococcus avium (GC 4558) (Enterococcus sp.; Enterococcus avium (GC 4558)): 4 µg/mL (≈ 3.55 µM)
MIC Enterococcus faecalis (ATCC 29212) (Enterococcus sp.; [6]): 8 µg/mL (≈ 7.09 µM)
MIC Enterococcus faecalis (GC 2242) (Enterococcus sp.; [7]): 4 µg/mL (≈ 3.55 µM)
MIC Enterococcus faecalis (GC 2691) (Enterococcus sp.; [8]): 8 µg/mL (≈ 7.09 µM)
MIC Enterococcus faecalis (GC 3059) (Enterococcus sp.; [9]): 8 µg/mL (≈ 7.09 µM)
MIC Enterococcus faecalis (GC 4552) (Enterococcus sp.; [10]): 8 µg/mL (≈ 7.09 µM)
MIC Enterococcus faecalis (GC 4553) (Enterococcus sp.; [11]): 8 µg/mL (≈ 7.09 µM)
MIC Enterococcus faecalis (GC 4554) (Enterococcus sp.; [12]): 4 µg/mL (≈ 3.55 µM)
MIC Enterococcus faecalis (GC 6189) (Enterococcus sp.; [13]): 4 µg/mL (≈ 3.55 µM)
MIC Enterococcus faecium (GC 2243) (Enterococcus sp.; Enterococcus faecium (GC 2243)): 4 µg/mL (≈ 3.55 µM)
MIC Enterococcus faecium (GC 4556) (Enterococcus sp.; Enterococcus faecium (GC 4556)): 8 µg/mL (≈ 7.09 µM)
MIC Enterococcus faecium (GC 4557) (Enterococcus sp.; Enterococcus faecium (GC 4557)): 2 µg/mL (≈ 1.77 µM)
MIC Enterococcus avium (GC 4558) (Enterococcus sp.): 4 µg/mL (≈ 3.55 µM)
MIC Enterococcus faecalis (ATCC 29212) (Enterococcus sp.): 8 µg/mL (≈ 7.09 µM)
MIC Enterococcus faecalis (GC 2242) (Enterococcus sp.): 4 µg/mL (≈ 3.55 µM)
MIC Enterococcus faecalis (GC 2691) (Enterococcus sp.): 8 µg/mL (≈ 7.09 µM)
MIC Enterococcus faecalis (GC 3059) (Enterococcus sp.): 8 µg/mL (≈ 7.09 µM)
MIC Enterococcus faecalis (GC 4552) (Enterococcus sp.): 8 µg/mL (≈ 7.09 µM)
MIC Enterococcus faecalis (GC 4553) (Enterococcus sp.): 8 µg/mL (≈ 7.09 µM)
MIC Enterococcus faecalis (GC 4554) (Enterococcus sp.): 4 µg/mL (≈ 3.55 µM)
MIC Enterococcus faecalis (GC 6189) (Enterococcus sp.): 4 µg/mL (≈ 3.55 µM)
MIC Enterococcus faecium (GC 2243) (Enterococcus sp.): 4 µg/mL (≈ 3.55 µM)
MIC Enterococcus faecium (GC 4556) (Enterococcus sp.): 8 µg/mL (≈ 7.09 µM)
MIC Enterococcus faecium (GC 4557) (Enterococcus sp.): 2 µg/mL (≈ 1.77 µM)

COc1cc(-c2nc3cc(CC4NC(=O)C(C(C)c5ccccc5)NC(=O)CNC(=O)C(CO)NC(=O)C(C(O)C5CNC(=N)N5C5OC(CO)C(O)C(O)C5O)NC(=O)C(C(O)C5CNC(=N)N5)NC4=O)ccc3o2)cc(OC)c1OC (stereo not drawn) [Example 34, Cyclo[3-[2-(3,4,5-trimethoxyphenyl)-1,3-benzoxazol-5-yl]alanyl-3-(2-iminoimidazolidin-4-yl)seryl-3-(3-hexopyranosyl-2-iminoimidazolidin-4-yl)serylserylglycyl-β-methylphenyl-alanyl]]
MIC Escherichia coli (ATCC 25922) (Escherichia coli): 64 µg/mL (≈ 55.1 µM)
MIC Escherichia coli (GC 4559) (Escherichia coli): 64 µg/mL (≈ 55.1 µM)
MIC Escherichia coli (GC 4560) (Escherichia coli): 16 µg/mL (≈ 13.8 µM)
MIC Coagulase Negative Staphylococcus (GC 4547) (Staphylococcus sp.): 16 µg/mL (≈ 13.8 µM)
MIC Coagulase Negative Staphylococcus (GC 4548) (Staphylococcus sp.): 16 µg/mL (≈ 13.8 µM)
MIC Coagulase Negative Staphylococcus (GC 4549) (Staphylococcus sp.): 4 µg/mL (≈ 3.44 µM)
MIC Coagulase Negative Staphylococcus (GC 4551) (Staphylococcus sp.): 32 µg/mL (≈ 27.5 µM)
MIC Coagulase Negative Staphylococcus (GC 6257) (Staphylococcus sp.): 8 µg/mL (≈ 6.88 µM)
MIC Staphylococcus aureus SMITH (GC 4543) (Staphylococcus sp.): 16 µg/mL (≈ 13.8 µM)
MIC Staphylococcus haemolyticus (GC 4546) (Staphylococcus sp.): 8 µg/mL (≈ 6.88 µM)
MIC Staphylococcus aureus-SMITH (GC 4543) (Staphylococcus sp.): 16 µg/mL (≈ 13.8 µM)
MIC Streptococcus agalactiae (GC 4564) (Streptococcus sp.; [1]): 32 µg/mL (≈ 27.5 µM)
MIC Streptococcus pneumoniae (ATCC 6301) (Streptococcus sp.; [2]): 32 µg/mL (≈ 27.5 µM)
MIC Streptococcus pneumoniae (GC 1894) (Streptococcus sp.; [3]): 16 µg/mL (≈ 13.8 µM)
MIC Streptococcus pneumoniae (GC 4565) (Streptococcus sp.; [4]): 32 µg/mL (≈ 27.5 µM)
MIC Streptococcus pyogenes (GC 4563) (Streptococcus sp.; [5]): 8 µg/mL (≈ 6.88 µM)
MIC Streptococcus agalactiae (GC 4564) (Streptococcus sp.): 32 µg/mL (≈ 27.5 µM)
MIC Streptococcus pneumoniae (ATCC 6301) (Streptococcus sp.): 32 µg/mL (≈ 27.5 µM)
MIC Streptococcus pneumoniae (GC 1894) (Streptococcus sp.): 16 µg/mL (≈ 13.8 µM)
MIC Streptococcus pneumoniae (GC 4565) (Streptococcus sp.): 32 µg/mL (≈ 27.5 µM)
MIC Streptococcus pyogenes (GC 4563) (Streptococcus sp.): 8 µg/mL (≈ 6.88 µM)
MIC Enterococcus avium (GC 4558) (Enterococcus sp.; Enterococcus avium (GC 4558)): 16 µg/mL (≈ 13.8 µM)
MIC Enterococcus faecalis (ATCC 29212) (Enterococcus sp.; [6]): 64 µg/mL (≈ 55.1 µM)
MIC Enterococcus faecalis (GC 2242) (Enterococcus sp.; [7]): 32 µg/mL (≈ 27.5 µM)
MIC Enterococcus faecalis (GC 2691) (Enterococcus sp.; [8]): 32 µg/mL (≈ 27.5 µM)
MIC Enterococcus faecalis (GC 3059) (Enterococcus sp.; [9]): 32 µg/mL (≈ 27.5 µM)
MIC Enterococcus faecalis (GC 4552) (Enterococcus sp.; [10]): 32 µg/mL (≈ 27.5 µM)
MIC Enterococcus faecalis (GC 4553) (Enterococcus sp.; [11]): 32 µg/mL (≈ 27.5 µM)
MIC Enterococcus faecalis (GC 4554) (Enterococcus sp.; [12]): 32 µg/mL (≈ 27.5 µM)
MIC Enterococcus faecalis (GC 6189) (Enterococcus sp.; [13]): 64 µg/mL (≈ 55.1 µM)
MIC Enterococcus faecium (GC 2243) (Enterococcus sp.; Enterococcus faecium (GC 2243)): 32 µg/mL (≈ 27.5 µM)
MIC Enterococcus faecium (GC 4556) (Enterococcus sp.; Enterococcus faecium (GC 4556)): 64 µg/mL (≈ 55.1 µM)
MIC Enterococcus faecium (GC 4557) (Enterococcus sp.; Enterococcus faecium (GC 4557)): 8 µg/mL (≈ 6.88 µM)
MIC Enterococcus avium (GC 4558) (Enterococcus sp.): 16 µg/mL (≈ 13.8 µM)
MIC Enterococcus faecalis (ATCC 29212) (Enterococcus sp.): 64 µg/mL (≈ 55.1 µM)
MIC Enterococcus faecalis (GC 2242) (Enterococcus sp.): 32 µg/mL (≈ 27.5 µM)
MIC Enterococcus faecalis (GC 2691) (Enterococcus sp.): 32 µg/mL (≈ 27.5 µM)
MIC Enterococcus faecalis (GC 3059) (Enterococcus sp.): 32 µg/mL (≈ 27.5 µM)
MIC Enterococcus faecalis (GC 4552) (Enterococcus sp.): 32 µg/mL (≈ 27.5 µM)
MIC Enterococcus faecalis (GC 4553) (Enterococcus sp.): 32 µg/mL (≈ 27.5 µM)
MIC Enterococcus faecalis (GC 4554) (Enterococcus sp.): 32 µg/mL (≈ 27.5 µM)
MIC Enterococcus faecalis (GC 6189) (Enterococcus sp.): 64 µg/mL (≈ 55.1 µM)
MIC Enterococcus faecium (GC 2243) (Enterococcus sp.): 32 µg/mL (≈ 27.5 µM)
MIC Enterococcus faecium (GC 4556) (Enterococcus sp.): 64 µg/mL (≈ 55.1 µM)
MIC Enterococcus faecium (GC 4557) (Enterococcus sp.): 8 µg/mL (≈ 6.88 µM)
